Data on three molecules can be found in PMC3089676 (Journal of the American Chemical Society, 2010).

Format in all cases: biochemical
One experiment addresses T1, HcyF (WS1006) (Wolinella succinogenes, UniProt Q7M9D2).
T1 sequence (Q7M9D2 1-272): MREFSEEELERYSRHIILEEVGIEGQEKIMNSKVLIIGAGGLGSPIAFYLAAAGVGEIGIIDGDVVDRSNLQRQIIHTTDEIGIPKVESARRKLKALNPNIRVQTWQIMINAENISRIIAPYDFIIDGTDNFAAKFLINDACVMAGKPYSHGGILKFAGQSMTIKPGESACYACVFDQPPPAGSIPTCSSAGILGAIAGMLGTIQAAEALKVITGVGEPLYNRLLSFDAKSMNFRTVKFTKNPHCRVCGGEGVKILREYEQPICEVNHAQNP
Briefly: HPLC detection of AMP formation. As to conditions: HcyS-Ala and HcyD present; MgCl2; room temperature.

A further experiment deals with T2, MetY (WS1012) (Wolinella succinogenes, UniProt Q7M9C8).
T2 sequence (Q7M9C8 1-407): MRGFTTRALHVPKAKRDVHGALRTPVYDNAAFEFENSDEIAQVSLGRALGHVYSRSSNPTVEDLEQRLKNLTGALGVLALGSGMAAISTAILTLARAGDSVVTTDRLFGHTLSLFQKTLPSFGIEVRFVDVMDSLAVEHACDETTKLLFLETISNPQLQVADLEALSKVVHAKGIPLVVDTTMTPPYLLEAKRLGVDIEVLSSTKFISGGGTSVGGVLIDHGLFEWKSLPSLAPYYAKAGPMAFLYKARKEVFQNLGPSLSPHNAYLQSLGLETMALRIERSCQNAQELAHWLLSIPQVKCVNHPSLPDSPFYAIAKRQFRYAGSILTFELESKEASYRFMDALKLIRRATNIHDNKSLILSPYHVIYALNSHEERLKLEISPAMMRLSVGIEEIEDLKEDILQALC
Put plainly: MALDI-MS of HcyS-homocysteine formation. As to conditions: HcyS-COSH as sulfur donor; room temperature.

In another experiment the target is T3, HcyD (WS1005) (Wolinella succinogenes, UniProt Q7MRV8).
T3 sequence (Q7MRV8 1-130): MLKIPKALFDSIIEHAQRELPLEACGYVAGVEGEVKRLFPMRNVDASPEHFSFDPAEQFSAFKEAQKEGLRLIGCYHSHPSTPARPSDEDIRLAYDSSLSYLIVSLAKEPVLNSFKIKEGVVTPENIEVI
Briefly: 1H-NMR of released alanine. As to conditions: released from HcyS-Ala (protein substrate); pH 8.0; room temperature.

On to `Nc1ncnc2c1ncn2[C@@H]1O[C@H](COP(=O)(O)OP(=O)(O)OP(=O)(O)O)[C@@H](O)[C@H]1O` [ATP], for which the “HPLC detection of AMP formation” value at HcyF (WS1006) is “AMP formation was dependent on HcyF, HcyS-Ala and HcyD”.

For `CC(=O)OCC[C@H](N)C(=O)O` [O-acetyl-L-homoserine], the “MALDI-MS of HcyS-homocysteine formation” value at MetY (WS1012) is reported as “catalyzed the reaction of HcyS-COSH with O-acetyl-L-homoserine to form HcyS-Homocysteine”.

As to `C[C@H](N)C(=O)O` [alanine], on HcyD (WS1005), the “1H-NMR of released alanine” value is recorded as 1H-NMR analysis of the small-molecule product confirmed the release of alanine from HcyS-Ala.
